The values below come from patent US20230295197A1, “STAT5 and STAT6 Degraders and Uses Thereof” (REGENTS OF THE UNIVERSITY OF MICHICAN, priority 2022, published 2023).

One test concerns the target T1, STAT6 (Homo sapiens, UniProt P42226).
T1 construct: endogenous in cells; host or cells: MOLM-16, KU-812, SKNO1, MB231, L1236
T1 sequence (P42226 1-847): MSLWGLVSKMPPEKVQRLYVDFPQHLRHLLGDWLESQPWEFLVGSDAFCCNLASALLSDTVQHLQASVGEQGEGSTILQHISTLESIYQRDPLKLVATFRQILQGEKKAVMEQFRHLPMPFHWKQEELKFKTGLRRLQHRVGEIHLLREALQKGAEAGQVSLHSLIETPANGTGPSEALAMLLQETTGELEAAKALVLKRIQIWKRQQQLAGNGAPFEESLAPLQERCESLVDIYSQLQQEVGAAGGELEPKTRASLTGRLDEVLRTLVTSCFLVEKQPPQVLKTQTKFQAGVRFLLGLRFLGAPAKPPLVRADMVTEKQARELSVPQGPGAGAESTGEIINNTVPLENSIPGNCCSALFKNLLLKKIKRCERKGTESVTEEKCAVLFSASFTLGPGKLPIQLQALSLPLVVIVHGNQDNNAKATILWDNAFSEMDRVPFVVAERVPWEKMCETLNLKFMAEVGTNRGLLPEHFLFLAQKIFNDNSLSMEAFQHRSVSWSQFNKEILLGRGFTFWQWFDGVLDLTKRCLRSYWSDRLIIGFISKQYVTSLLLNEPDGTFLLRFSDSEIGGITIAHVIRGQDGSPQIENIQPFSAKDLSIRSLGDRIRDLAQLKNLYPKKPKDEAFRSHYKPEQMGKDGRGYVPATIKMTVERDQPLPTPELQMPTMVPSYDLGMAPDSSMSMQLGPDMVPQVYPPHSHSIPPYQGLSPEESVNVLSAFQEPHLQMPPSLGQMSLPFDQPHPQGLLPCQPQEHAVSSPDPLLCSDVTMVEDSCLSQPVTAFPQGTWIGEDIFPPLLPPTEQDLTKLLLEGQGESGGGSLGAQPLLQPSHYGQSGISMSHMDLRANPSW
In words: Immunoblotting (Western blot) analysis of STAT6 degradation efficiency of degraders in treated cells. It counts as cell-based. In outline:
(§1)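 Each data point uses roughly one million cells dosed as indicated; pellets are lysed on ice, freeze-thawed, and clarified. Reduced, denatured samples (95 °C, 5 min) run on SDS gels, then membranes receive rabbit mAbs to STAT5 or STAT6 plus mouse anti-GAPDH overnight, followed by dye-labelled secondaries for fluorescence imaging.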
For orientation: Immunoblotting shows a protein as a band on a membrane.

A further test deals with STAT5. In words: Immunoblotting (Western blot) analysis of STAT5 degradation efficiency of degraders in treated cells. In kind it is cell-based. In outline: as §1
Where [1] appears, read: MOLM-16 cells, numeric bound, read-out: DC50 S6 MOLM-16.
The mark [2] stands for this setting: KU-812 cells, read-out: DC50 S5 KU-812.
Setting [3] is: MOLM-16 cells, class symbols, read-out: DC50 S5 MOLM-16.
Where [4] appears, read: SKNO1 cells, read-out: DC50 S5 SKNO1.
Where [5] appears, read: MOLM-16 cells, numeric bound, read-out: DC50 S5 MOLM-16.
The mark [6] stands for this setting: MOLM-16 cells, class symbols, read-out: DC50 S6 MOLM-16.

Where two headings read alike, the source gives them in different places.

Consider `CC(C)(C)[C@H](NC(=O)c1cc2cc(C(F)(F)P(=O)(O)O)ccc2s1)C(=O)N1CCC[C@H]1C(=O)N(CCC(=O)NCCCC#Cc1cccc2c1CN(C1CCC(=O)NC1=O)C2=O)c1ccc2sccc2c1` (stereo partly drawn) [Compound 650, ((2-(((2S)-1-((2S)-2-(benzo[b]thiophen-5-yl(3-((5-(2-(2,6-dioxopiperidin-3-yl)-1-oxoisoindolin-4-yl)pent-4-yn-1-yl)amino)-3-oxopropyl)carbamoyl)pyrrolidin-1-yl)-3,3-dimethyl-1-oxobutan-2-yl)carbamoyl)benzo[b]thiophen-5-yl)difluoromethyl)phosphonic acid], for which the DC50 at STAT6 (setting [1]) is above 300 nM; with STAT5 (setting [2]) it was 100 to 1000 nM; in the test with STAT5 (setting [3]) it was below 100 nM; in the test with STAT5 (setting [4]), 100 to 1000 nM.

As for `CC(C)(C)[C@H](NC(=O)c1cc2cc(C(F)(F)P(=O)(O)O)ccc2s1)C(=O)N1CCC[C@H]1C(=O)N(CCC(=O)N1CC(CC#Cc2cccc3c2CN(C2CCC(=O)NC2=O)C3=O)C1)c1ccc(Br)cc1` (stereo partly drawn) [Compound 667, ((2-(((2S)-1-((2S)-2-((4-bromophenyl)(3-(3-(3-(2-(2,6-dioxopiperidin-3-yl)-1-oxoisoindolin-4-yl)prop-2-yn-1-yl)azetidin-1-yl)-3-oxopropyl)carbamoyl)pyrrolidin-1-yl)-3,3-dimethyl-1-oxobutan-2-yl)carbamoyl)benzo[b]thiophen-5-yl)difluoromethyl)phosphonic acid], the DC50 at STAT6 (setting [1]) is above 300 nM; with STAT5 (setting [2]) it was above 10000 nM; with STAT5 (setting [5]), above 300 nM; in the test with STAT5 (setting [4]), above 10000 nM.

For `CC(C)(C)[C@H](NC(=O)c1cc2cc(C(F)(F)P(=O)(O)O)ccc2s1)C(=O)N1CCC[C@H]1C(=O)N(CCC(=O)NCCCC#Cc1cccc2c1CN(C1CCC(=O)NC1=O)C2=O)c1ccc2c(c1)CCCO2` (stereo partly drawn) [Compound 669, ((2-(((2S)-1-((2S)-2-(chroman-6-yl(3-((5-(2-(2,6-dioxopiperidin-3-yl)-1-oxoisoindolin-4-yl)pent-4-yn-1-yl)amino)-3-oxopropyl)carbamoyl)pyrrolidin-1-yl)-3,3-dimethyl-1-oxobutan-2-yl)carbamoyl)benzo[b]thiophen-5-yl)difluoromethyl)phosphonic acid], the figures for the DC50 at STAT6 (setting [1]), in the test with STAT5 (setting [5]) and in the test with STAT5 (setting [4]) were above 300 nM, above 300 nM and above 10000 nM, respectively.

Turning to `CC(C)(C)[C@H](NC(=O)c1cc2cc(C(F)(F)P(=O)(O)O)ccc2s1)C(=O)N1CCC[C@H]1C(=O)N(CCC(=O)N1CC(CCC#Cc2cccc3c2CN(C2CCC(=O)NC2=O)C3=O)C1)c1ccc(Br)cc1` (stereo partly drawn) [Compound 666, ((2-(((2S)-1-((2S)-2-((4-bromophenyl)(3-(3-(4-(2-(2,6-dioxopiperidin-3-yl)-1-oxoisoindolin-4-yl)but-3-yn-1-yl)azetidin-1-yl)-3-oxopropyl)carbamoyl)pyrrolidin-1-yl)-3,3-dimethyl-1-oxobutan-2-yl)carbamoyl)benzo[b]thiophen-5-yl)difluoromethyl)phosphonic acid], the DC50 at STAT6 (setting [1]) was above 300 nM; in the test with STAT5 (setting [2]), 1000 to 10000 nM; in the test with STAT5 (setting [5]), above 300 nM; with STAT5 (setting [4]) it was 1000 to 10000 nM.

On to `CN(CCCC#Cc1cccc2c1CN(C1CCC(=O)NC1=O)C2=O)C(=O)CCN(C(=O)[C@@H]1CCCN1C(=O)[C@@H](NC(=O)c1cc2cc(C(F)(F)P(=O)(O)O)ccc2s1)C(C)(C)C)c1ccc2ccccc2c1` (stereo partly drawn) [Compound 680, ((2-(((2S)-1-((2S)-2-((3-((5-(2-(2,6-dioxopiperidin-3-yl)-1-oxoisoindolin-4-yl)pent-4-yn-1-yl)(methyl)amino)-3-oxopropyl)(naphthalen-2-yl)carbamoyl)pyrrolidin-1-yl)-3,3-dimethyl-1-oxobutan-2-yl)carbamoyl)benzo[b]thiophen-5-yl)difluoromethyl)phosphonic acid], for which the DC50 on STAT6 (setting [6]) was above 10000 nM; in the test with STAT5 (setting [2]), 100 to 1000 nM; in the test on STAT5 (setting [3]), below 100 nM; in the test with STAT5 (setting [4]), 100 to 1000 nM.

As for `Cc1ncsc1-c1ccc([C@H](CC(=O)NCCOCCOCCC(=O)N[C@@H]2C[C@@H](C(=O)Nc3ncc(-c4ccccc4)s3)N(C(=O)[C@@H](NC(=O)c3cc4cc(C(F)(F)P(=O)(O)O)ccc4s3)C(C)(C)C)C2)NC(=O)[C@@H]2C[C@@H](O)CN2C(=O)[C@@H](NC(=O)C2(F)CC2)C(C)(C)C)cc1` [Compound 581, (difluoro(2-(((S)-1-((2S,4R)-4-((S)-1-((2S,4R)-1-((S)-2-(1-fluorocyclopropane-1-carboxamido)-3,3-dimethylbutanoyl)-4-hydroxypyrrolidin-2-yl)-3-(4-(4-methylthiazol-5-yl)phenyl)-1,5-dioxo-9,12-dioxa-2,6-diazapentadecan-15-amido)-2-((5-phenylthiazol-2-yl)carbamoyl)pyrrolidin-1-yl)-3,3-dimethyl-1-oxobutan-2-yl)carbamoyl)benzo[b]thiophen-5-yl)methyl)phosphonic acid], the half-maximal degradation concentration (DC50) at STAT6 (setting [1]) and in the test on STAT5 (setting [5]) was above 300 nM in each case.

Consider `CC(C)(C)[C@H](NC(=O)c1cc2cc(C(F)(F)P(=O)(O)O)ccc2s1)C(=O)N1CCC[C@H]1C(=O)N(CCC(=O)NCCCC#Cc1cccc2c1CN(C1CCC(=O)NC1=O)C2=O)c1ccc(-c2ccccc2)cc1` (stereo partly drawn) [Compound 663, ((2-(((2S)-1-((2S)-2-([1,1′-biphenyl]-4-yl(3-((5-(2-(2,6-dioxopiperidin-3-yl)-1-oxoisoindolin-4-yl)pent-4-yn-1-yl)amino)-3-oxopropyl)carbamoyl)pyrrolidin-1-yl)-3,3-dimethyl-1-oxobutan-2-yl)carbamoyl)benzo[b]thiophen-5-yl)difluoromethyl)phosphonic acid], for which the DC50 at STAT6 (setting [1]) was above 300 nM; in the test on STAT5 (setting [2]) it was 1000 to 10000 nM; with STAT5 (setting [5]), above 300 nM; with STAT5 (setting [4]) it was 1000 to 10000 nM.

For `CC(C)(C)C(=O)OCOP(=O)(O)C(F)(F)c1ccc2sc(C(=O)N[C@H](C(=O)N3C[C@@H](OCCCCCC#Cc4cccc5c4CN(C4CCC(=O)NC4=O)C5=O)C[C@H]3C(=O)N3CCO[C@H](c4ccccc4)C3)C(C)(C)C)cc2c1` (stereo partly drawn) [Compound 652, ((((2-(((2S)-1-((2S,4S)-4-((7-(2-(2,6-dioxopiperidin-3-yl)-1-oxoisoindolin-4-yl)hept-6-yn-1-yl)oxy)-2-((R)-2-phenylmorpholine-4-carbonyl)pyrrolidin-1-yl)-3,3-dimethyl-1-oxobutan-2-yl)carbamoyl)benzo[b]thiophen-5-yl)difluoromethyl)(hydroxy)phosphoryl)oxy)methyl pivalate], the half-maximal degradation concentration (DC50) is below 100 nM on STAT6 (setting [6]) and above 10000 nM in the test with STAT5 (setting [3]).

In the case of `CN(C(=O)[C@@H]1C[C@@H](OCC(=O)NCCCC#Cc2cccc3c2CN(C2CCC(=O)NC2=O)C3=O)CN1C(=O)[C@@H](NC(=O)c1cc2cc(C(F)(F)P(=O)(O)O)ccc2s1)C(C)(C)C)c1ccc(Br)cc1` (stereo partly drawn) [Compound 411, ((2-(((2S)-1-((2S,4R)-2-((4-bromophenyl)(methyl)carbamoyl)-4-(2-((5-(2-(2,6-dioxopiperidin-3-yl)-1-oxoisoindolin-4-yl)pent-4-yn-1-yl)amino)-2-oxoethoxy)pyrrolidin-1-yl)-3,3-dimethyl-1-oxobutan-2-yl)carbamoyl)benzo[b]thiophen-5-yl)difluoromethyl)phosphonic acid], the DC50 was above 10000 nM on STAT6 (L1236 cells, read-out: DC50 S6 L1236); above 10000 nM on STAT6 (MB231 cells, read-out: DC50 S6 MB231); above 10000 nM in the test with STAT5 (setting [4]).

As for `Cc1ncsc1-c1ccc([C@H](CC(=O)NCCCCCCC(=O)N[C@@H]2C[C@@H](C(=O)Nc3ncc(-c4ccccc4)s3)N(C(=O)[C@@H](NC(=O)c3cc4cc(C(F)(F)P(=O)(O)O)ccc4s3)C(C)(C)C)C2)NC(=O)[C@@H]2C[C@@H](O)CN2C(=O)[C@@H](NC(=O)C2(F)CC2)C(C)(C)C)cc1` [Compound 576, (difluoro(2-(((S)-1-((2S,4R)-4-(7-((S)-3-((2S,4R)-1-((S)-2-(1-fluorocyclopropane-1-carboxamido)-3,3-dimethylbutanoyl)-4-hydroxypyrrolidine-2-carboxamido)-3-(4-(4-methylthiazol-5-yl)phenyl)propanamido)heptanamido)-2-((5-phenylthiazol-2-yl)carbamoyl)pyrrolidin-1-yl)-3,3-dimethyl-1-oxobutan-2-yl)carbamoyl)benzo[b]thiophen-5-yl)methyl)phosphonic acid], the DC50 on STAT6 (setting [1]) and in the test on STAT5 (setting [5]) was above 300 nM each time.

The DC50 is the concentration giving 50% degradation.
